In patent US5489612A, “Calixarene chloride-channel blockers” (The University of Alabama at Birmingham Research Foundation, priority 1994, dated 1996):
Like-named read-outs stand apart in the source and are kept apart here.

Tested on: colonic secretory chloride channel
Test: Single chloride channels from rat colonic enterocyte plasma membrane vesicles incorporated into planar lipid bilayers; calixarene added to the cis (outer membrane) side
Type: biochemical
Conditions: for duration of the block periods: increases with size n of p-sulfonatocalix[n]arene; for MAXIMUM BLOCK PERIODS: single channel in PE:PS 7:3 planar bilayer; for MAXIMUM BLOCK PERIODS (block of channel): UPTO 100 μM
Procedure: In accordance with the methodology of Reinhardt et al., "Properties of an Anion-selective Channel from Rat Colonic Enterocyte Plasma Membranes Reconstituted into Planar Phospholipid Bilayers", J. Membrane Biol. 95: 47-54, 1987, calixarene derivatives were tested on single chloride channels incorporated into planar lipid bilayers. Plasma membrane vesicles derived from rat colonic enterocytes were used as a source of chloride channels. Properties of the colonic secretory chloride channel include one dominant open-state conductance, an outwardly rectified current-voltage relation with a zero voltage slope conductance of 50 pS in 150 mM Cl, a Cl to Na selectivity of at least 10:1, and a halide selectivity of I>Br>CI>F. Patch-clamp studies of several chloride secreting epithelia have identified an apical membrane chloride channel with identical biophysical properties. This channel is activated by CAMP and Ca mediated agonists and thus is considered a secretory chloride channel.
Chloride channels were incorporated into planar lipid bilayers of phosphatidylethanolamine and phosphatidylserine (PE:PS, 7:3) and data recorded according to known test methodology. See, Bridges et al., "Stilbene Disulfonate Blockade of Colonic Secretory Cl^- Channels in Planar Lipid Bilayers", Am. J. Physiol. 256 (Cell Physiol. 25): C902-C912, 1989. See also, Reinhardt et al. and Singh et al., supra.
Once a chloride channel was incorporated into the bilayer, baseline (control) channel activity was recorded for 5-15 minutes. The calixarenes were then added to the cis or outer membrane side of the channel and the channel activity recorded for an additional 5-15 minutes at each concentration. Because each channel serves as its own control, calixarene effects could be uniquely identified. In some experiments the cis compartment was exchanged with calixarene-free solution to test the reversibility of the calixarene-induced effects. Single channel records were stored on video tape and quantitatively evaluated by computer assisted analysis.

[1] = single channel in planar bilayer, Table 1, read-out: Ki (concentration causing a half-maximal inhibition)

Ki [1]	Ki (read-out: concentration causing a half maximal decrease (K1) in Po (percent time channel in open state))	K1 (suggested from brief open periods between long blocks) (estimate)	Compound	duration of the block periods	MAXIMUM BLOCK PERIODS (Table 1)	long-lived block periods, duration (at a concentration as low as 3 nM)	MAXIMUM BLOCK PERIODS (block of channel)	blocking the chloride channel (even at a concentration as high as 100 μM)
< 50 nM			O=S(=O)(O)c1cc2c(O)c(c1)Cc1cc(S(=O)(=O)O)cc(c1O)Cc1cc(S(=O)(=O)O)cc(c1O)Cc1cc(S(=O)(=O)O)cc(c1O)Cc1cc(S(=O)(=O)O)cc(c1O)Cc1cc(S(=O)(=O)O)cc(c1O)Cc1cc(S(=O)(=O)O)cc(c1O)Cc1cc(S(=O)(=O)O)cc(c1O)C2 [5,11,17,23,29,35,41,47-octasulfonatocalix[8]arene]	> 100 s	> 100 s			
400 to 500 nM			O=S(=O)(O)c1cc2c(O)c(c1)Cc1cc(S(=O)(=O)O)cc(c1O)Cc1cc(S(=O)(=O)O)cc(c1O)Cc1cc(S(=O)(=O)O)cc(c1O)Cc1cc(S(=O)(=O)O)cc(c1O)Cc1cc(S(=O)(=O)O)cc(c1O)C2 [5,11,17,23,29,35-hexasulfonatocalix[6]arene]	30 to 40 s	30 to 40 s			

Continued, compound first:

Compound	Ki [1]	Ki (read-out: concentration causing a half maximal decrease (K1) in Po (percent time channel in open state))	K1 (suggested from brief open periods between long blocks) (estimate)	duration of the block periods	MAXIMUM BLOCK PERIODS (Table 1)	long-lived block periods, duration (at a concentration as low as 3 nM)	MAXIMUM BLOCK PERIODS (block of channel)	blocking the chloride channel (even at a concentration as high as 100 μM)
O=S(=O)(O)c1cc2c(O)c(c1)Cc1cc(S(=O)(=O)O)cc(c1O)Cc1cc(S(=O)(=O)O)cc(c1O)Cc1cc(S(=O)(=O)O)cc(c1O)C2 [5,11,17,23-TETRASULFONATO-CALIX[4]ARENE, 5,11,17,23-tetrasulfonato-calix[4]arene]	800 to 900 nM	< 1000 nM		3 to 4 s	3 to 4 s			
COc1c2cc(S(=O)(=O)O)cc1Cc1cc(S(=O)(=O)O)cc(c1OC)Cc1cc(S(=O)(=O)O)cc(c1OC)Cc1cc(S(=O)(=O)O)cc(c1OC)C2 [5,11,17,23-tetrasulfonato-25,26,27,28-tetramethoxy-calix[4]arene]	< 3 nM		subnanomolar		> 100 s	several hundred		
COc1c2cccc1Cc1cccc(c1OC)Cc1cccc(c1OC)Cc1cccc(c1OC)C2 [25,26,27,28-TETRAMETHOXY-CALIX[4]ARENE, reference compound]							NO BLOCK	
Oc1c2cccc1Cc1cccc(c1O)Cc1cccc(c1O)Cc1cccc(c1O)C2 [CALIX[4]ARENE, Calix[4]arene, reference compound]							NO BLOCK	completely ineffective
